Assay results published in patent publication US20010018209A1, “Cell compositions” (Takara Shuzo Co., Ltd., priority 1996, published 2001).

Columns and labels:
[1] = system: HL-60 cells; test: Cell growth inhibitory activity by MTT, absorbance at 590 nm (HL-60 compared with HUVEC); type: cell-based; details: final 1-100 μM, 48 hours
[2] = system: fibroblasts, NIH/3T3 cells (ATCC CRL-1658); test: Cell growth inhibitory activity, MTT, observed under a microscope; type: cell-based; details: 48 hours
Description: (§1) (3) The fibroblasts, NIH/3T3 cells (ATCC CRL-1658), were dispersed with trypsin according to a conventional method and suspended in Dulbecco modified Eagle's culture medium containing 10% bovine serum at a concentration of 5× 10^4 cells/ml. Then, each 90 μl portion thereof was distributed into each well of a 96-well microtiter plate. To each well was added an aqueous solution (10 μl) of 15.6, 31.3, 62.5, 125, 250, 500 or 1,000 μM cyclopentenone, or water (10 μl) as a control and the cells on that plate were incubated at 37° C. for 48 hours in the presence of 5% CO2. Further, 5 mg/ml MTT phosphate buffered saline (10 μl) was added and the incubation was continued for additional 4 hours. Cell growth was observed under a microscope and the apoptosis inducing activity was estimated as cell growth inhibitory activity.

[3] = system: HL-60 cells; test: as above; type: cell-based; details: 48 hours
Description: as §1
The same procedure was repeated with respect to HL-60 cells except that the cells were cultured in RPMI1640 culture medium containing 10% fetal bovine serum.

[4] = system: cancer cells; test: Apoptosis after addition to a culture broth of cancer cells (general statement); type: cell-based; details: within one to several days after addition
[5] = system: normal cells; test: Toxicity / apoptosis against normal cells (general statement); type: cell-based
[6] = system: mouse; test: Toxicity on administration to mouse (general statement); details: in vivo
[7] = system: Myeloma cells (P3X63Ag8U.1, ATCC CRL-1597); test: Apoptosis induction / living cell number in cultured myeloma cells (trypan blue, microscope); type: cell-based; details: 1 mg/ml, 60 hours
Description: Myeloma cells (P3X63Ag8U.1, ATCC CRL-1597) were cultured at 37° C. in RPMI1640 culture medium (manufactured by Gibco) containing 10% fetal bovine serum (manufactured by JRH Bioscience) treated at 56° C. for 30 minutes and they were suspended in RPMI1640 culture medium containing 10% fetal bovine serum at a concentration of 2.5×10^5 cells/4.5 ml. On the other hand, a dextran sulfate (molecular weight: 0.5 million, manufactured by Oncor) was dissolved in 50 mM HEPES buffer (pH 7.0) containing 120 mM sodium chloride at a concentration of 10 mg/ml and sterilized by filtration. This solution (0.5 ml) was added to the above suspension (4.5 ml) and incubated at 37° C. for 60 hours in the presence of 5% CO2.
The incubated cells were observed under a microscope to examine the degree of growth and cell morphology. […] After initiation of incubation, the living cell number was counted with time by trypan blue staining.
Next, A dextran sulfate (molecular weight: 0.5 million, manufactured by Oncor) was dissolved in 50 mM HEPES buffer (pH 7.0) containing 120 mM sodium chloride in concentration of 10 mg/ml, and treated by heating at 120° C. for 20 minutes. According to the same manner as described above, apoptosis inducing activity was determined by using the dextran sulfate.

Row | Molecule | cell growth inhibitory activity, HL-60 compared with HUVEC [1] | cell growth ([2]; final concentration of 12.5 μM) | cell growth ([2]; final concentration of 25 μM) | selectivity, tumor cell line HL-60 compared with non-tumor cell line NIH/3T3 [3] | cell growth ([3]; final concentration of 6.25 μM) | cytocidal effect ([3]; final concentration of 6.25 μM) | apoptosis of cancer cells [4] | toxicity against normal cells [5] | toxicity in mouse [6] | apoptosis inducing activity [7] | cell morphology under a microscope (characteristics of apoptosis) [7]
1 | O=C1C=CC(O)C1O (centres unmarked) [cyclopentenone, 4,5-dihydroxy-2-cyclopenten-1-one] | stronger cell growth inhibitory activity to the cancer cells, HL-60 cells than that to the normal cells, HUVEC cells | the same cell growth as that of the water-added control group | no cell growth was observed | selective cell growth inhibitory activity and cytocidal activity | no cell growth was observed | almost all the cells were killed | apoptosis of the cancer cells is caused | does not show any toxicity against normal cells | does not show any toxicity against mouse | – | –
2 | dextran sulfate | – | – | – | – | – | – | – | – | – | strong apoptosis inducing activity | exhibited characteristics of apoptosis such as cell shrinkage, cell nuclear fragmentation
